How the values were obtained:
MG-63 (osteosarcoma) = test: MTT cytotoxicity assay, MG-63; type: cell-based; details: 72 h, mean, SD in next cell
Description: (§1) The human epithelial ovarian cancer A2780 cell line and its cisplatin-resistant clone A2780cis were obtained from Sigma-Aldrich (Milano, Italy). A2780cis cells were continuously exposed to 1 μM cisplatin to maintain cisplatin resistance. A549 cells (Human non-small cell lung cancer), MCF7 (metastatic breast cancer), PC3 (highly aggressive metastatic prostate cancer), and MG63 (osteosarcoma) were obtained from the American Type Culture Collection (ATCC). Cells were authenticated in laboratory using the PowerPlex 16 HS System. A2780, A2780cis, and PC3 cells were cultured in RPMI-1640 medium; MG63 and MCF7 cells were cultured in DMEM, and A549 cells were cultured in F12 NUT-MIX. The culture medium contained about 10% fetal bovine serum (FBS) (Gibco, Thermo Fisher Scientific, Monza, Italy), about 1% (v/v) of penicillin (10,000 units/mL)-streptomycin (10 mg/mL), and about 1% (v/v) L-glutamine (200 mM) (all from Sigma-Aldrich). Cells were cultured at 37° C. in a 5% CO2, fully humidified atmosphere.
(§2) 2.5×10^3 (PC3, MG63, MCF7) or 4.0×10^3 (A2780, A2780cis, A549) cells were seeded in 96-well microplates in 100 μL culture medium. Cells, allowed to adhere for 24 h, were then treated in triplicate with increasing concentrations of gold compounds. Cisplatin was included as a reference drug. Cell viability was evaluated using 3-(4,5-dimethylthiazol-2-yl)-2,5-diphenyltetrazolium bromide (MTT) assay (Sigma-Aldrich) after 72 h of treatment. Half maximal inhibitory concentrations (IC50), IC25, and IC75 were calculated using the CalcuSyn software version 2 (Biosoft, Ferguson, MO, USA) (See: Chou, T. C.; Talalay, P. Quantitative Analysis of Dose-Effect Relationships: The Combined Effects of Multiple Drugs or Enzyme Inhibitors. Adv. Enzyme Regul. 1984, 22, 27-55, which is incorporated herein by reference in its entirety). Fold resistance was calculated as the ratio of the IC50 of the A2780cis to that of the parental cell line A2780. […]

[1] = system: A2780cis (cisplatin-resistant clone of A2780); test: MTT cytotoxicity assay, A2780cis; type: cell-based, human
Description: as §1
2.5×10^3 (PC3, MG63, MCF7) or 4.0×10^3 (A2780, A2780cis, A549) cells were seeded in 96-well microplates in 100 μL culture medium. Cells, allowed to adhere for 24 h, were then treated in triplicate with increasing concentrations of gold compounds. Cisplatin was included as a reference drug. Cell viability was evaluated using 3-(4,5-dimethylthiazol-2-yl)-2,5-diphenyltetrazolium bromide (MTT) assay (Sigma-Aldrich) after 72 h of treatment. Half maximal inhibitory concentrations (IC50), IC25, and IC75 were calculated using the CalcuSyn software version 2 (Biosoft, Ferguson, MO, USA) (See: Chou, T. C.; Talalay, P. Quantitative Analysis of Dose-Effect Relationships: The Combined Effects of Multiple Drugs or Enzyme Inhibitors. Adv. Enzyme Regul. 1984, 22, 27-55, which is incorporated herein by reference in its entirety). Fold resistance was calculated as the ratio of the IC50 of the A2780cis to that of the parental cell line A2780. Alternatively, cell viability was assayed by crystal violet staining (See: Feoktistova, M.; Geserick, P.; Leverkus, M. Crystal Violet Assay for Determining Viability of Cultured Cells. Cold Spring Harb Protoc 2016, 2016, pdb.prot087379, which is incorporated herein by reference in its entirety). Alternatively, after drug treatment, the culture Medium was removed, cells washed, fixed, and stained, and the Crystal Violet solution lasted 20 minutes (See: Sulaiman, A. A. A.; Casagrande, N.; Borghese, C.; Corona, G.; Isab, A. A.; Ahmad, S.; Aldinucci, D.; Altaf M. Design, Synthesis, and Preclinical Activity in Ovarian Cancer Models of New Phosphanegold(I)—N-Heterocyclic Carbene Complexes. J Med Chem 2022, 65, 14424-14440, which is incorporated herein by reference in its entirety).

BAX = BAX expression, flow cytometry; type: cell-based, human; details: A549, 72 h
Description: 2.0×10^5 A549 cells were seeded in 6-well plates in a complete medium and treated with the complex 3. Assay results were detected by flow cytometry on a BD FACSCanto II flow cytometer. Data were analyzed using BD FACSDiva v.8.0.1 software (BD Biosciences) unless otherwise indicated. Tumor cells were treated for 72 h with complex 3, then stained for 15 minutes with FITC Annexin-V (Thermo Fisher Scientific) and 7AAD (BD Pharmingen, Milan, Italy). Activated caspase-3,7 was detected using the CaspaTag Caspase-3,7 assay (Merck Millipore) after an incubation of 24 h with complex 3. For B-cell lymphoma/leukemia-2 protein (Bcl-2) and Bcl-2 associated x protein (Bax) analysis, cells were treated for 72 h with C3, then fixed and permeabilized (FIX & PERM Cell Fixation & Cell Permeabilization Kit, Life Technologies). […] The distribution of cells in different cell cycle phases was quantified using ModFit LT 4.0 software (Verity Software House, Topsham, ME, USA) (See: Sulaiman, A. A. A.; Casagrande, N.; Borghese, C.; Corona, G.; Isab, A. A.; Ahmad, S.; Aldinucci, D.; Altaf M. Design, Synthesis, and Preclinical Activity in Ovarian Cancer Models of New Phosphanegold(I)—N-Heterocyclic Carbene Complexes. J Med Chem 2022, 65, 14424-14440, which is incorporated herein by reference in its entirety). […]

TrxR = test: Thioredoxin reductase activity in treated cell lysates; type: cell-based, human; details: A549 cells treated 24 h
Description: Cells were treated with complex 3 (24 h) and then lysed in 50 mM Tris-HCl pH 7.6, 0.1% Triton X-100, 0.9% NaCl to obtain the TrxR activity. TrxR (EC 1.8.1.9) was assayed using the Thioredoxin Reductase Assay Kit (Sigma-Aldrich). Enzyme activity was determined by reading the absorbance at 412 nm using a spectrophotometer (Biomate 3 Thermo Spectronic, Thermo Electronic Corporation, Monza, Italy) and normalized to the protein concentration, determined with the Bio-Rad protein assay (Protein Assay Dye Reagent Concentrate, Bio-Rad Laboratories, Segrate, Italy).

A549 cells = test: Crystal violet staining cell viability; type: cell-based, human; details: A549, 72 h
Description: as §2, with “A2780. Alternatively, cell viability was assayed by crystal violet staining (See: Feoktistova, M.; Geserick, P.; Leverkus, M. Crystal Violet Assay for Determining Viability of Cultured Cells. Cold Spring Harb Protoc 2016, 2016, pdb.prot087379, which is incorporated herein by reference in its entirety).” for “A2780.”

CC(C)c1cccc(C(C)C)c1-n1ccn(-c2c(C(C)C)cccc2C(C)C)[c]1=[Au-][P+](CCNCC[P+]([Au-]=[c]1n(-c2c(C(C)C)cccc2C(C)C)ccn1-c1c(C(C)C)cccc1C(C)C)(C1CCCCC1)C1CCCCC1)(C1CCCCC1)C1CCCCC1 [Complex 3, [(Au(IPr))2(C28H24P2)](PF6)2]
IC50 (MG-63 (osteosarcoma)): 0.16 µM
Fold resistance (A2780cis/A2780) ([1]; IC50 A2780cis/IC50 A2780): 2.19
IC50 ([1]; MTT, 72 h, mean, SD in next cell): 0.24 µM
pro-apoptotic BAX expression (BAX): induced
TrxR enzymatic activity (TrxR): not modified
growth inhibition by crystal violet staining (A549 cells): growth inhibition

Source: US20250222009A1, “DINUCLEAR GOLD(I) COMPLEXES FOR TREATING CANCER” (KING FAHD UNIVERSITY OF PETROLEUM AND MINERALS, priority 2024, published 2025)
